Laboratory results taken from ChEMBL document CHEMBL1909046, “DrugMatrix in vitro pharmacology data”.

Experiments:
[1] = biological target: T1, Alpha-2C adrenergic receptor (Homo sapiens, UniProt P18825); assay: DRUGMATRIX: Adrenergic Alpha-2C radioligand binding (ligand: [3H] MK-912); format: cell membranes, Sf9, Membrane; settings: sf9
T1 sequence (P18825 whole entry): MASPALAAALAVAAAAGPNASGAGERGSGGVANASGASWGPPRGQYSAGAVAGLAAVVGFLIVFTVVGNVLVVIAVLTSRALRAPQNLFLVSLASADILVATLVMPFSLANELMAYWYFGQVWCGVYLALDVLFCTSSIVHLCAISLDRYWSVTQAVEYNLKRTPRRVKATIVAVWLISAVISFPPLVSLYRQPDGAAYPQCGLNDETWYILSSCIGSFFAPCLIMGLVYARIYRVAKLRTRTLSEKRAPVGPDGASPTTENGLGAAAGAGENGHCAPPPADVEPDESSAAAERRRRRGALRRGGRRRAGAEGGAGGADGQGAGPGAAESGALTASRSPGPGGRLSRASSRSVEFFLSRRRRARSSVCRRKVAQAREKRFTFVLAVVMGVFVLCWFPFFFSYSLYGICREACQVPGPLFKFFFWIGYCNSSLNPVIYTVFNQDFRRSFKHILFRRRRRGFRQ

[2] = DRUGMATRIX: Atrial Natriuretic Factor (ANF) radioligand binding (ligand: [125I] ANF (rat)); format: cell membranes, Cavia porcellus, Dunkin-Hartley, Adrenal gland, Membrane; settings: Not Active = under 50% inhibition at 10 µM
[3] = DRUGMATRIX: Sigma2 radioligand binding (ligand: [3H] Ifenprodil); format: cell membranes, Rattus norvegicus, Wistar, Brain, Membrane; settings: Not Active = under 50% inhibition at 10 µM
[4] = biological target: T2, Thromboxane-A synthase (Homo sapiens, UniProt P24557); assay: biochemical; format: tissue-based, Platelet; settings: platelet;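 further: enzyme inhibition assay with PGH2 supplied as substrate; in other assays of this panel Not Active means under 50% inhibition at 10 µM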
T2 sequence (P24557 whole entry): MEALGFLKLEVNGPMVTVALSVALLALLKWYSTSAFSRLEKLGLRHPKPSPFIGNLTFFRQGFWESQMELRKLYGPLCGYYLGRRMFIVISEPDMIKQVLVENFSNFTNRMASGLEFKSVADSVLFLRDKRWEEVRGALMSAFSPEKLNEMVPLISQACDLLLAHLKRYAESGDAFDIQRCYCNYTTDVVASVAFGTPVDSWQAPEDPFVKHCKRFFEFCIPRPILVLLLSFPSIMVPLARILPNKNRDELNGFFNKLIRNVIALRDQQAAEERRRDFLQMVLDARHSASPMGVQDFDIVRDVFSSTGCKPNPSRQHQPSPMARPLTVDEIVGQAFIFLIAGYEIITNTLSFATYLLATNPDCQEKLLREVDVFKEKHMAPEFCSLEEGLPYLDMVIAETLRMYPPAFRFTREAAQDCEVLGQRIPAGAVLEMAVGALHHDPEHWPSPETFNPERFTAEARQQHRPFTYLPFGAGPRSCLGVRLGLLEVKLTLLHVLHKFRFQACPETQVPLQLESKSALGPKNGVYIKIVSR

[5] = biological target: Vascular endothelial growth factor receptor 1 (Homo sapiens, UniProt P17948); format: cell-based; settings: huvec; further: in other assays of this panel Not Active means under 50% inhibition at 10 µM
Sequence of Vascular endothelial growth factor receptor 1 (P17948 whole entry): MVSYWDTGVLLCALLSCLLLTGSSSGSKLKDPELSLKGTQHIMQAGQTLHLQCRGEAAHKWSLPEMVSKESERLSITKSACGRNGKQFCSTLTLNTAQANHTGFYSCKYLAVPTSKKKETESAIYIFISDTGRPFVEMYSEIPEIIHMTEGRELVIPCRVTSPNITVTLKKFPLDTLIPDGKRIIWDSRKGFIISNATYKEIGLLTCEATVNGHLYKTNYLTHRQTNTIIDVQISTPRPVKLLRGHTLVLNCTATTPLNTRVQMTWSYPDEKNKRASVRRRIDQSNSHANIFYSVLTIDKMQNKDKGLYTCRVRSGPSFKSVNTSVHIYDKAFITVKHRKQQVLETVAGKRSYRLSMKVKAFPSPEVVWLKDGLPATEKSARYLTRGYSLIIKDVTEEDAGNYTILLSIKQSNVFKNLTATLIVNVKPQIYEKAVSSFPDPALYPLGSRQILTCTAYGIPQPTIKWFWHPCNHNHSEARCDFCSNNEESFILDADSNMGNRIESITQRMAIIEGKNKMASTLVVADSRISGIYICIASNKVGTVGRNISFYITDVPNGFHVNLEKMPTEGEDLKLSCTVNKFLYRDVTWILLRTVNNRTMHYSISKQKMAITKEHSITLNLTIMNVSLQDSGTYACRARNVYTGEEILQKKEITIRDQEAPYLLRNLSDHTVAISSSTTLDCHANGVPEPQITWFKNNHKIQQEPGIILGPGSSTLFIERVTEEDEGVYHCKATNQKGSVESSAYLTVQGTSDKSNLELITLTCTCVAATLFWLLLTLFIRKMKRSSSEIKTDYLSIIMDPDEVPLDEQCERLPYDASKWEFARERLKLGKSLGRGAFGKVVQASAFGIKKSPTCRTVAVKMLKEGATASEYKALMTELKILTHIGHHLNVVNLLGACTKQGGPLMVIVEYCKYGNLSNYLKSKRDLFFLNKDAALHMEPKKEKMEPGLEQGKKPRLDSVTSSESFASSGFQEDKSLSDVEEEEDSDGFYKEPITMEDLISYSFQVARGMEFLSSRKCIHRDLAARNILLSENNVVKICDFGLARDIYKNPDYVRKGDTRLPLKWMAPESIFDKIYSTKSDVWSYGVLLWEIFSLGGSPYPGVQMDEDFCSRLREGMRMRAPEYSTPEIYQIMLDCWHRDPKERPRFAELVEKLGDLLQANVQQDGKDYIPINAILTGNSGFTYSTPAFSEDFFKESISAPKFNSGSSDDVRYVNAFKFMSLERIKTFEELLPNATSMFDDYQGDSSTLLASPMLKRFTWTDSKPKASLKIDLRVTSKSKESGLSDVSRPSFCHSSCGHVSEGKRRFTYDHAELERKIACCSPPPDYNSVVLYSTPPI

[6] = biological target: Carbonic anhydrase 2 (Homo sapiens, UniProt P00918); assay: DRUGMATRIX: Carbonic Anhydrase II enzyme inhibition (substrate: 4-Nitrophenyl acetate (4-NPA)); format: tissue-based, Erythrocyte; settings: erythrocyte; Not Active = under 50% inhibition at 10 µM
[7] = biological target: C-C chemokine receptor type 5 (Homo sapiens, UniProt P51681); format: cell membranes, Membrane; settings: hek293; further: in other assays of this panel Not Active means under 50% inhibition at 10 µM
Sequence of C-C chemokine receptor type 5 (P51681 whole entry): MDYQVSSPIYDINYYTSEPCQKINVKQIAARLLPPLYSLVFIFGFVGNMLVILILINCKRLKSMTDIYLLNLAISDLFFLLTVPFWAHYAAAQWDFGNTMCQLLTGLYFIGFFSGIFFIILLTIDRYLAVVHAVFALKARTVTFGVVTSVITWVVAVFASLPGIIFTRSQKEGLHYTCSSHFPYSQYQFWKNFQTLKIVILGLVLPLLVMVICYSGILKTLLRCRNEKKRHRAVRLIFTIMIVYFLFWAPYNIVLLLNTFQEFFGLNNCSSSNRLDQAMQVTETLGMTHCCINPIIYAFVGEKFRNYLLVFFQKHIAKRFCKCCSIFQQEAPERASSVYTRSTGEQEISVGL

[8] = biological target: T3, D(4) dopamine receptor (Homo sapiens, UniProt P21917); assay: DRUGMATRIX: Dopamine D4.2 radioligand binding (ligand: [3H] Spiperone); format: cell membranes, CHO-K1, Membrane; settings: cho-k1; Not Active = under 50% inhibition at 10 µM
T3 sequence (P21917 whole entry): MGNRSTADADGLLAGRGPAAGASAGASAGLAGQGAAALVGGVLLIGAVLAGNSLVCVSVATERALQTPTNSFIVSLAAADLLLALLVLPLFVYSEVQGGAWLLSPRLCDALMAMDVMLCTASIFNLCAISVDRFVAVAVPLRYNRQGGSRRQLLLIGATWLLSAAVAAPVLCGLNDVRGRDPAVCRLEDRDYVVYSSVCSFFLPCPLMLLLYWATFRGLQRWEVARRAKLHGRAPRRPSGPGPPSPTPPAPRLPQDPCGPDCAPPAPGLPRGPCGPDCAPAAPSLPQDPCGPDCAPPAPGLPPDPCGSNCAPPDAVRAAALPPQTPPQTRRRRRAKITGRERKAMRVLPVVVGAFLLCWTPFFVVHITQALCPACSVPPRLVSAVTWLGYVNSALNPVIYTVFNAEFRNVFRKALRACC

[9] = biological target: Sodium-dependent dopamine transporter (Homo sapiens, UniProt Q01959); assay: DRUGMATRIX: Dopamine Transporter radioligand binding (ligand: [125I] RTI-55); format: cell membranes, CHO-K1, Membrane; settings: cho-k1; Not Active = under 50% inhibition at 10 µM
Sequence of Sodium-dependent dopamine transporter (Q01959 whole entry): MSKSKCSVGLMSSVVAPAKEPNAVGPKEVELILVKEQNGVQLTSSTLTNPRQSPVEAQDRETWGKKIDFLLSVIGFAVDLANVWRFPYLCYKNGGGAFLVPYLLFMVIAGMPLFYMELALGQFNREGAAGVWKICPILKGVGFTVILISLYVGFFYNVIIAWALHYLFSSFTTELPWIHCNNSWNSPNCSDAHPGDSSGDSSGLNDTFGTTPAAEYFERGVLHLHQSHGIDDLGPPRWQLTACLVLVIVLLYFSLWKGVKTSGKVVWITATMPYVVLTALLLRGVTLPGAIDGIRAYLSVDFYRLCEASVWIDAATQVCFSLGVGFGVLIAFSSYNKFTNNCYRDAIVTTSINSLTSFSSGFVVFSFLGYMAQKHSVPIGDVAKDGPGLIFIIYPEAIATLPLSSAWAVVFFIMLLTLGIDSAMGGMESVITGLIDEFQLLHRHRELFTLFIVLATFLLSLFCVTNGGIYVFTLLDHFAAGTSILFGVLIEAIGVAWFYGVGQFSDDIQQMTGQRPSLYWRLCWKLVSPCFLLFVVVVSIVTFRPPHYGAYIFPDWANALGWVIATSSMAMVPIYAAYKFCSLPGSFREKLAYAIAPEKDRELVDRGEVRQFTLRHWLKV

[10] = biological target: Glycine receptor (Rattus norvegicus, UniProt P22771+P24524+P07727+P20781); format: cell membranes, Wistar, Spinal cord, Membrane; further: in other assays of this panel Not Active means under 50% inhibition at 10 µM
[11] = DRUGMATRIX: Imidazoline I2, Central radioligand binding (ligand: [3H] Idazoxan); format: cell membranes, Rattus norvegicus, Wistar, Cerebral cortex, Membrane; settings: Not Active = under 50% inhibition at 10 µM
[12] = DRUGMATRIX: Leukotriene, BLT (LTB4) radioligand binding (ligand: [3H]LTB4); format: cell membranes, Membrane; settings: u-937; Not Active = under 50% inhibition at 10 µM
[13] = biological target: Nitric oxide synthase 1 (Rattus norvegicus, UniProt P29476); format: tissue-based, Cerebellum; further: in other assays of this panel Not Active means under 50% inhibition at 10 µM
Sequence of Nitric oxide synthase 1 (P29476 whole entry): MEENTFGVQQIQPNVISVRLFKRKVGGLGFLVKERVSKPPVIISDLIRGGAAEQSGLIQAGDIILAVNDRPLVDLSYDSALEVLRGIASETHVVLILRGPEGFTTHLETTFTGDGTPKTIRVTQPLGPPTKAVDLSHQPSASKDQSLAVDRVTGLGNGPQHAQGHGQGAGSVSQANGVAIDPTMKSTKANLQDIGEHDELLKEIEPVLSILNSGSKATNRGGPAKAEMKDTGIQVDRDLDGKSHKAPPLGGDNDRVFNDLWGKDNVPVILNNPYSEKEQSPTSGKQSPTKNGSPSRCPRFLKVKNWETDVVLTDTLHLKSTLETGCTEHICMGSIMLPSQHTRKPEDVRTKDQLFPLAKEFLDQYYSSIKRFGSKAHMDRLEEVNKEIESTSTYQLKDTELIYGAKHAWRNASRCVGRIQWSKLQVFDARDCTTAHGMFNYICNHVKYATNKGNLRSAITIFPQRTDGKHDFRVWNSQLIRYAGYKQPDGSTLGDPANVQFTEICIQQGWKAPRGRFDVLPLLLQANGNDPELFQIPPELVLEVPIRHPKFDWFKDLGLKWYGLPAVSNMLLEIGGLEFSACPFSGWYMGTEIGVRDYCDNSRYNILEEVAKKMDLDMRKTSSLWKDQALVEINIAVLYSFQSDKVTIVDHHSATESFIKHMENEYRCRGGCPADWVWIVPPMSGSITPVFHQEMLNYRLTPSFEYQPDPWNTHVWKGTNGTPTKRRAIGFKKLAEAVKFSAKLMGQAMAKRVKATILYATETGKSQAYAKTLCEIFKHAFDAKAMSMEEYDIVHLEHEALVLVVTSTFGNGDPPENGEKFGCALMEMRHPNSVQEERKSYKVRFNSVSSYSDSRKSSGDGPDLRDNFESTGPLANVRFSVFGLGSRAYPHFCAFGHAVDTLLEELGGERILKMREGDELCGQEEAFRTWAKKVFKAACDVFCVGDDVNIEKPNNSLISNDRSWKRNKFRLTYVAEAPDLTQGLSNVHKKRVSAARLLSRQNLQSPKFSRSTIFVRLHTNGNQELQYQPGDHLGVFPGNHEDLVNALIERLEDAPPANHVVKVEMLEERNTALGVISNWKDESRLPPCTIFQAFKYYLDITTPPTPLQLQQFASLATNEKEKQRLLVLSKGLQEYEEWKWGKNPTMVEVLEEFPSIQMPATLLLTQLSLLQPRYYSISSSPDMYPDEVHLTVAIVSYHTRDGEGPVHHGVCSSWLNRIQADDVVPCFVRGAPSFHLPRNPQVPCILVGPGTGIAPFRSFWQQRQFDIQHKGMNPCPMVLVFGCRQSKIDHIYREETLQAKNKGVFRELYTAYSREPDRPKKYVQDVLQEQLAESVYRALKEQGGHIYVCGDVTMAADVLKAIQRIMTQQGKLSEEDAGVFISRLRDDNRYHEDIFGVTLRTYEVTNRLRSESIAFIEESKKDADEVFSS

[14] = biological target: T4, Caspase-1 (Homo sapiens, UniProt P29466); design: species or system Escherichia coli
T4 sequence (P29466 whole entry): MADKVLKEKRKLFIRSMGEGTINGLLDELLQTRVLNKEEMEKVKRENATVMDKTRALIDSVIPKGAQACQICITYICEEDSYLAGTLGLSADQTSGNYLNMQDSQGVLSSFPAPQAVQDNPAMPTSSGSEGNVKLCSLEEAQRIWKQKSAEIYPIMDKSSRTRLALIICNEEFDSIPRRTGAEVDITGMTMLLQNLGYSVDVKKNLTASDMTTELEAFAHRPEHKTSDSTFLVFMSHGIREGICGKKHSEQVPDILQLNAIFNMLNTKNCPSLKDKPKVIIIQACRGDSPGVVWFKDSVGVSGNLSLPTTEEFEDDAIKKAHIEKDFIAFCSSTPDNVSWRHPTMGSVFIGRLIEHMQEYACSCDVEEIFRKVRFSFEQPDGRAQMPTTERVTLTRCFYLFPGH

NC(=O)c1ccccc1O [SALICYLAMIDE]
Not Active: IC50 [1] | IC50 [2] | Ki [2] | IC50 [3] | Ki [3] | IC50 [4] | IC50 [5] | IC50 [6] | IC50 [7] | IC50 [8] | IC50 [9] | IC50 [10] | IC50 [11] | Ki [11] | IC50 [12] | Ki [12] | IC50 [13] | IC50 [14]

Cc1ncc([N+](=O)[O-])n1CC(C)O (stereo not drawn) [SECNIDAZOLE]
Not Active: IC50 [1] | IC50 [2] | Ki [2] | IC50 [3] | Ki [3] | IC50 [4] | IC50 [5] | IC50 [6] | IC50 [7] | IC50 [8] | IC50 [9] | IC50 [10] | IC50 [11] | Ki [11] | IC50 [12] | Ki [12] | IC50 [13] | IC50 [14]

CN[C@@H]1[C@@H](O)[C@@H](O[C@@H]2[C@@H](O)[C@H](O[C@H]3OC(CN)=CC[C@H]3N)[C@@H](N)C[C@H]2N)OC[C@]1(C)O [SISOMICIN]
Not Active: IC50 [1] | IC50 [2] | Ki [2] | IC50 [3] | Ki [3] | IC50 [4] | IC50 [5] | IC50 [6] | IC50 [7] | IC50 [8] | IC50 [9] | IC50 [10] | IC50 [11] | Ki [11] | IC50 [12] | Ki [12] | IC50 [13] | IC50 [14]

CC(=O)S[C@@H]1CC2=CC(=O)CC[C@]2(C)[C@H]2CC[C@@]3(C)[C@@H](CC[C@@]34CCC(=O)O4)[C@H]12 [SPIRONOLACTONE]
Not Active: IC50 [1] | IC50 [2] | Ki [2] | IC50 [3] | Ki [3] | IC50 [4] | IC50 [5] | IC50 [6] | IC50 [7] | IC50 [8] | IC50 [9] | IC50 [10] | IC50 [11] | Ki [11] | IC50 [12] | Ki [12] | IC50 [13] | IC50 [14]

C[C@]12Cc3c[nH]nc3C[C@@H]1CC[C@@H]1[C@@H]2CC[C@@]2(C)[C@H]1CC[C@]2(C)O [STANOZOLOL]
Not Active: IC50 [1] | IC50 [2] | Ki [2] | IC50 [3] | Ki [3] | IC50 [4] | IC50 [5] | IC50 [6] | IC50 [7] | IC50 [8] | IC50 [9] | IC50 [10] | IC50 [11] | Ki [11] | IC50 [12] | Ki [12] | IC50 [13] | IC50 [14]

CN(N=O)C(=O)N[C@@H](C=O)[C@@H](O)[C@H](O)[C@H](O)CO [STREPTOZOCIN]
Not Active: IC50 [1] | IC50 [2] | Ki [2] | IC50 [3] | Ki [3] | IC50 [4] | IC50 [5] | IC50 [6] | IC50 [7] | IC50 [8] | IC50 [9] | IC50 [10] | IC50 [11] | Ki [11] | IC50 [12] | Ki [12] | IC50 [13] | IC50 [14]
